We go through four compounds from US9670261B2 (Sanofi, priority 2012, dated 2017).

A short description of data set [1]: Solubility testing in buffer (HPLC-UV). Particulars: buffer.
Data set [2] in a line: Chemical stability in solution, 7 days at 25° C. (% remaining peptide). Particulars: % remaining peptide after 7 days at 25° C.
Description: After that time course, the sample was centrifuged for 20 min at 4000 rpm and the supernatant was analysed with HPLC-UV. For determination of the amount of the remaining peptide, the peak areas of the target compound at t0 and t7 were compared, resulting in “% remaining peptide”, following the equation % remaining peptide=[(peak area peptide t7)×100]/peak area peptide t0.
The chemical stability is expressed as “% remaining peptide”.
Data set [3] can be described thus: Pharmacokinetic testing in mice, s.c. Particulars: mouse, plasma, sc, 1 mg/kg.
Description: Mice were dosed 1 mg/kg subcutaneously (s.c.). The mice were sacrified and blood samples were collected after 0.25, 0.5, 1, 2, 4, 8, 16 and 24 hours post application. Plasma samples were analyzed after protein precipitation via liquid chromatography mass spectrometry (LC/MS). PK parameters and half-life were calculated using WinonLin Version 5.2.1 (non-compartment model).
In a further data set the target is T1, human GLP-1 receptor (Homo sapiens, UniProt P43220).
T1 construct: expressed in transfected cells
Briefly: cAMP response (HTRF) of HEK-293 cells stably expressing human GLP-1 receptor. The format is cell-based. Particulars: Table 7; cAMP formation; read-out: EC50 hGLP-1 R. On the procedure: (§1) cAMP content of cells was determined using a kit from Cisbio Corp. (cat. no. 62AM4PEC) based on HTRF (Homogenous Time Resolved Fluorescence). For preparation, cells were split into T175 culture flasks and grown overnight to near confluency in medium (DMEM/10% FBS). Medium was then removed and cells washed with PBS lacking calcium and magnesium, followed by proteinase treatment with accutase (Sigma-Aldrich cat. no. A6964). Detached cells were washed and resuspended in assay buffer (1×HBSS; 20 mM HEPES, 0.1% BSA, 2 mM IBMX) and cellular density determined. They were then diluted to 400000 cells/ml and 25 μl-aliquots dispensed into the wells of 96-well plates. For measurement, 25 μl of test compound in assay buffer was added to the wells, followed by incubation for 30 minutes at room temperature.

Data set [4] relates to female leptin-receptor deficient diabetic db/db mice. Briefly: Blood glucose and HbA1c in leptin-receptor deficient diabetic db/db mice (method 3). Particulars: single 100 μg/kg s.c., fed db/db mice. The format is in vivo. An excerpt:
Female BKS.Cg-m+/+Leprdb/J (db/db) and BKS.Cg-m+/+Leprdb/+(lean control) mice were obtained from Charles River Laboratories, Germany, at an age of 9-10 weeks. The animals were housed in groups in a specific pathogen-free barrier facility on a 12-h light/dark cycle with free access to water and rodent-standard chow. After 1 week of acclimatization, blood samples were drawn from the tail without anaesthesia and blood glucose (method: d-glucose hexokinase, hemolysate, AU640 Beckman Coulter) and HbA1c level (method: hemolysate, Cobas6000 c501, Roche Diagnostics, Germany) were determined. […] The volume of administration was 5 mL/kg. The animals had access to water and chow during the experiment, food consumption was determined at all time points of blood sampling. […] Blood sampling was performed by tail incision without anaesthesia. […] At the end of the study, blood samples (tail, no anaesthesia) were analyzed for glucose and HbA1c. […] Statistical analyses were performed with Everstat 6.0 by repeated measures two-way ANOVA and Dunnett's post-hoc analyses. Differences versus vehicle-treated db/db control mice were considered statistically significant at the p<0.05 level. […] At predefined time points, more blood samples were taken to measure blood glucose and generate the blood glucose profile over 24 h. […] Blood glucose and HbA1c were determined before start of treatment and at the end of the study after 4 weeks of treatment. […] Before treatment started, no significant differences in blood glucose levels could be detected between db/db groups, only the lean control animals had significant lower glucose levels. During the 4 weeks of treatment, glucose levels increased in the vehicle-treated db/db control group, indicating a worsening of the diabetic situation.

A further data set deals with T2, human GIP receptor (Homo sapiens, UniProt P48546).
T2 construct: expressed in transfected cells
T2 sequence (P48546 22-466): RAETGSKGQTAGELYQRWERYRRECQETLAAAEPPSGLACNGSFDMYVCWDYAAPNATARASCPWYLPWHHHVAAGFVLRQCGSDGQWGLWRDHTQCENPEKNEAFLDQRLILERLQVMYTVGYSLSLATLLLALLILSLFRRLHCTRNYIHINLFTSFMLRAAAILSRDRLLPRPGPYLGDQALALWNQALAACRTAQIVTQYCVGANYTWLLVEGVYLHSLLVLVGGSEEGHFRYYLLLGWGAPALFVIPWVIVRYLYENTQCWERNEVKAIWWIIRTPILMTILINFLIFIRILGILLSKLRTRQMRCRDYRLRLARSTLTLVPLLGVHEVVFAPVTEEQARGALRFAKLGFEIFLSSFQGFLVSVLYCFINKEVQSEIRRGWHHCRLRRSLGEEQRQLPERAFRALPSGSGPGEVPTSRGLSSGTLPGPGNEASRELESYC
Briefly: cAMP response (HTRF) of HEK-293 cells stably expressing human GIP receptor. The format is cell-based. Particulars: Table 7; cAMP formation; read-out: EC50 hGIP R. On the procedure:
as §1

≈ marks a conversion by molar mass, not a printed value. *1 amine or outer side, *2 acyl side, *3 side chain or, on linkers, in order; H or OH if unused. Where a SMILES comes first, the peptide text is derived from it. Side-chain parts run from the residue outwards. [ ]: non-standard residue; d: D form. The star is where a group is joined. γGlu = O=C(O)[C@H](CCC(=O)[*:2])N[*:1]; Palmitoyl = CCCCCCCCCCCCCCCC(=O)*; Aib = CC(C)(N)C(=O)O

T1 sequence (P43220 24-463): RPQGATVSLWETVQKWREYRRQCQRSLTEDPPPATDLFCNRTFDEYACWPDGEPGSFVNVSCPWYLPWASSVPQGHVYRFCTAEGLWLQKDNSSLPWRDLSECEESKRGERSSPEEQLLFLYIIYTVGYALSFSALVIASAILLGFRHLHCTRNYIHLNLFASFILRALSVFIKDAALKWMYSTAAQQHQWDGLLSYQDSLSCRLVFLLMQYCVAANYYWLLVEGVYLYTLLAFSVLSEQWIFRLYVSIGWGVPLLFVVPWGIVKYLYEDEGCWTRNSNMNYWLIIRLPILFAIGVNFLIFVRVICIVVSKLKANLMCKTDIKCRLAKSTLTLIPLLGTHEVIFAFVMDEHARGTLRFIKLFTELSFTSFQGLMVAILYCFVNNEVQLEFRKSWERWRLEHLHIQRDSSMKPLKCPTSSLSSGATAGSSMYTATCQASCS

On to `CCCCCCCCCCCCCCCC(=O)N[C@@H](CCC(=O)NCCCC[C@H](NC(=O)[C@H](CCC(N)=O)NC(=O)[C@@H](NC(=O)[C@H](CO)NC(=O)[C@H](CC(C)C)NC(=O)[C@H](CC(=O)O)NC(=O)[C@H](CO)NC(=O)[C@@H](NC(=O)[C@H](Cc1ccccc1)NC(=O)[C@@H](NC(=O)CNC(=O)[C@H](CCC(N)=O)NC(=O)C(C)(C)NC(=O)[C@@H](N)Cc1ccc(O)cc1)[C@@H](C)O)[C@@H](C)O)[C@@H](C)CC)C(=O)N[C@@H](CCC(=O)O)C(=O)N[C@@H](CCCCN)C(=O)N[C@@H](CCCNC(=N)N)C(=O)N[C@@H](C)C(=O)N[C@@H](C)C(=O)NC(C)(C)C(=O)N[C@@H](CCC(=O)O)C(=O)N[C@@H](Cc1ccccc1)C(=O)N[C@H](C(=O)N[C@@H](CCC(=O)O)C(=O)N[C@@H](Cc1c[nH]c2ccccc12)C(=O)N[C@@H](CC(C)C)C(=O)N[C@@H](CCCCN)C(=O)N[C@@H](CC(N)=O)C(=O)N[C@H](C(=O)NCC(=O)N1CCC[C@H]1C(=O)N[C@@H](CO)C(=O)N[C@@H](CO)C(=O)NCC(=O)N[C@@H](C)C(=O)N1CCC[C@H]1C(=O)N1CCC[C@H]1C(=O)N1CCC[C@H]1C(=O)N[C@@H](CO)C(N)=O)[C@@H](C)O)[C@@H](C)CC)C(=O)O` [SEQ ID NO: 8, Y-Aib-Q-G-T-F-T-S-D-L-S-I-Q-K(γE-x53)-E-K-R-A-A-Aib-E-F-I-E-W-L-K-N-T-G-P-S-S-G-A-P-P-P-S-NH2] (H-Y[Aib]QGTFTSDLSIQK([γGlu-Palmitoyl])EKRAA[Aib]EFIEWLKNTGPSSGAPPPS-NH2), for which the results for the solubility at 2 h in data set [1] (pH 4.5) and in data set [1] (pH 7.4) were greater than 1000 µg/mL and 972 µg/mL (≈ 212 µM), respectively. Also, the “Stability (pH 4.5)” value in data set [2] (pH 4.5) is reported as 98.0%. For the same compound, the “Stability (pH 7.4)” value in data set [2] (pH 7.4) amounted to 98.0%. This compound also returned a Cmax in data set [3] of 3740 ng/mL. This compound showed a half-life in data set [3] of 204 min. Further, at human GLP-1 receptor, the EC50 stood at 5.3 pM.

In data set [3], `CCCCCCCCCCCCCCCC(=O)N[C@@H](CCC(=O)NCCCC[C@H](NC(=O)[C@H](CCC(N)=O)NC(=O)[C@@H](NC(=O)[C@H](CO)NC(=O)[C@H](CC(C)C)NC(=O)[C@H](CC(=O)O)NC(=O)[C@H](CO)NC(=O)[C@@H](NC(=O)[C@H](Cc1ccccc1)NC(=O)[C@@H](NC(=O)CNC(=O)[C@H](CCC(=O)O)NC(=O)C(C)(C)NC(=O)[C@@H](N)Cc1ccc(O)cc1)[C@@H](C)O)[C@@H](C)O)[C@@H](C)CC)C(=O)N[C@@H](CCC(=O)O)C(=O)N[C@@H](CO)C(=O)N[C@@H](CCCNC(=N)N)C(=O)N[C@@H](C)C(=O)N[C@@H](C)C(=O)N[C@@H](CCC(N)=O)C(=O)N[C@@H](CC(=O)O)C(=O)N[C@@H](Cc1ccccc1)C(=O)N[C@H](C(=O)N[C@@H](CCC(=O)O)C(=O)N[C@@H](Cc1c[nH]c2ccccc12)C(=O)N[C@@H](CC(C)C)C(=O)N[C@@H](CCCCN)C(=O)N[C@@H](C)C(=O)NCC(=O)NCC(=O)N1CCC[C@H]1C(=O)N[C@@H](CO)C(=O)N[C@@H](CO)C(=O)NCC(=O)N[C@@H](C)C(=O)N1CCC[C@H]1C(=O)N1CCC[C@H]1C(=O)N1CCC[C@H]1C(=O)N[C@@H](CO)C(N)=O)[C@@H](C)CC)C(=O)O` [SEQ ID NO: 10, Y-Aib-E-G-T-F-T-S-D-L-S-I-Q-K(γE-x53)-ESRAAQDFIEWLKAGGPSSGAPPPS-NH2] (H-Y[Aib]EGTFTSDLSIQK([γGlu-Palmitoyl])ESRAAQDFIEWLKAGGPSSGAPPPS-NH2) gave a Cmax of 5820 ng/mL and a half-life of 162 min. Further, the “blood glucose compared to db/db control mice, 24 h profile” value in data set [4] is “significant decrease in blood glucose”.

For `CCCCCCCCCCCCCCCC(=O)N[C@@H](CCC(=O)NCCCC[C@H](NC(=O)[C@H](CCC(N)=O)NC(=O)[C@@H](NC(=O)[C@H](CO)NC(=O)[C@H](CC(C)C)NC(=O)[C@H](CC(=O)O)NC(=O)[C@H](CO)NC(=O)[C@@H](NC(=O)[C@H](Cc1ccccc1)NC(=O)[C@@H](NC(=O)CNC(=O)[C@H](CCC(=O)O)NC(=O)C(C)(C)NC(=O)[C@@H](N)Cc1ccc(O)cc1)[C@@H](C)O)[C@@H](C)O)[C@@H](C)CC)C(=O)N[C@@H](CCC(=O)O)C(=O)N[C@@H](CCCCN)C(=O)N[C@@H](CCCNC(=N)N)C(=O)N[C@@H](C)C(=O)N[C@@H](C)C(=O)NC(C)(C)C(=O)N[C@@H](CC(=O)O)C(=O)N[C@@H](Cc1ccccc1)C(=O)N[C@H](C(=O)N[C@@H](CCC(=O)O)C(=O)N[C@@H](Cc1c[nH]c2ccccc12)C(=O)N[C@@H](CC(C)C)C(=O)N[C@@H](CCCCN)C(=O)N[C@@H](CC(N)=O)C(=O)N[C@H](C(=O)NCC(=O)N1CCC[C@H]1C(=O)N[C@@H](CO)C(=O)N[C@@H](CO)C(=O)NCC(=O)N[C@@H](C)C(=O)N1CCC[C@H]1C(=O)N1CCC[C@H]1C(=O)N1CCC[C@H]1C(=O)N[C@@H](CO)C(N)=O)[C@@H](C)O)[C@@H](C)CC)C(=O)O` [SEQ ID NO: 27, Y-Aib-E-G-T-F-T-S-D-L-S-I-Q-K(γE-x53)-E-K-R-A-A-Aib-D-F-I-E-W-L-K-N-T-G-P-S-S-G-A-P-P-P-S-NH2] (H-Y[Aib]EGTFTSDLSIQK([γGlu-Palmitoyl])EKRAA[Aib]DFIEWLKNTGPSSGAPPPS-NH2), the EC50 turned out to be 6.7 pM at human GIP receptor and 4 pM on human GLP-1 receptor.

As to `CCCCCCCCCCCCCCCC(=O)N[C@@H](CCC(=O)NCCCC[C@H](NC(=O)[C@H](CCC(N)=O)NC(=O)[C@@H](NC(=O)[C@H](CO)NC(=O)[C@H](CC(C)C)NC(=O)[C@H](CC(=O)O)NC(=O)[C@H](CO)NC(=O)[C@@H](NC(=O)[C@H](Cc1ccccc1)NC(=O)[C@@H](NC(=O)CNC(=O)[C@H](CCC(=O)O)NC(=O)C(C)(C)NC(=O)[C@@H](N)Cc1ccc(O)cc1)[C@@H](C)O)[C@@H](C)O)[C@@H](C)CC)C(=O)N[C@@H](CCC(=O)O)C(=O)N[C@@H](CCCCN)C(=O)N[C@@H](CCCNC(=N)N)C(=O)N[C@@H](C)C(=O)N[C@@H](C)C(=O)NC(C)(C)C(=O)N[C@@H](CCC(=O)O)C(=O)N[C@@H](Cc1ccccc1)C(=O)N[C@H](C(=O)N[C@@H](CCC(=O)O)C(=O)N[C@@H](Cc1c[nH]c2ccccc12)C(=O)N[C@@H](CC(C)C)C(=O)N[C@@H](CCCCN)C(=O)N[C@@H](C)C(=O)NCC(=O)NCC(=O)N1CCC[C@H]1C(=O)N[C@@H](CO)C(=O)N[C@@H](CO)C(=O)NCC(=O)N[C@@H](C)C(=O)N1CCC[C@H]1C(=O)N1CCC[C@H]1C(=O)N1CCC[C@H]1C(=O)N[C@@H](CO)C(N)=O)[C@@H](C)CC)C(=O)O` [SEQ ID NO: 36, Y-Aib-E-G-T-F-T-S-D-L-S-I-Q-K(γE-x53)-E-K-R-A-A-Aib-E-F-I-E-W-L-K-A-G-G-P-S-S-G-A-P-P-P-S-NH2] (H-Y[Aib]EGTFTSDLSIQK([γGlu-Palmitoyl])EKRAA[Aib]EFIEWLKAGGPSSGAPPPS-NH2), the EC50 at human GIP receptor stood at 6.4 pM.
